# From article PMC8724838 (Biomolecules & Therapeutics, 2021)
# Key:
# Assay type in all cases: cell-based
# [1] = molecular target: T1, Mrgpra1 (Mus musculus, UniProt Q91WW5); experiment: calcium imaging, […] DCA in Mrgpra1-HEK293T cells
# T1 sequence (Q91WW5 1-304): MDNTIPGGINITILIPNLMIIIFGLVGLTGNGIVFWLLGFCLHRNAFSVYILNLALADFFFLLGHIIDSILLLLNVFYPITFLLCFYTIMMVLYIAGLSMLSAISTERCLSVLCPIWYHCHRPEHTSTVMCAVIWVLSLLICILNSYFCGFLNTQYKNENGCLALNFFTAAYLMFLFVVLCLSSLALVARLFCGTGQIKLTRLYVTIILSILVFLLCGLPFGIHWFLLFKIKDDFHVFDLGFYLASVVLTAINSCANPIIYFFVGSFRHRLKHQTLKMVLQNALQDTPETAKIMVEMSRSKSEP
# [2] = molecular target: T1, Mrgpra1; experiment: calcium imaging
# [3] = molecular target: T2, Mrgprb2 (Mus musculus, UniProt Q3KNA1); experiment: calcium imaging
# T2 sequence (Q3KNA1 1-338): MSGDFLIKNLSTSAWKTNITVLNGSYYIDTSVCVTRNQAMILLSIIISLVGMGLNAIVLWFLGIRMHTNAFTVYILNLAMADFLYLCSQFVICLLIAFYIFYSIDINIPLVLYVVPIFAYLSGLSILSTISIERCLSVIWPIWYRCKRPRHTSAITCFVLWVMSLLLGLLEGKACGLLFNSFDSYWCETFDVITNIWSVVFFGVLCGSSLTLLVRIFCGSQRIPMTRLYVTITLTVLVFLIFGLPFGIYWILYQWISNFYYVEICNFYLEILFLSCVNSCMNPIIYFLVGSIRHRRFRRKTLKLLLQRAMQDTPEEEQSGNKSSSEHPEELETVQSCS
Structure (SMILES),"calcium imaging, 100 μM DCA in Mrgpra1-HEK293T cells (weaker than LCA) [1]",EC50 [2] [µM],EC50 [3] [µM]
"C[C@H](CCC(=O)O)[C@H]1CC[C@H]2[C@@H]3CC[C@@H]4C[C@H](O)CC[C@]4(C)[C@H]3C[C@H](O)[C@]12C [DCA, deoxycholic acid]","also elevated the fluorescence intensity in Mrgpra1-HEK293T, but to a lesser extent (Fig. 1B, 1C)",–,–
"C[C@H](CCC(=O)O)[C@H]1CC[C@H]2[C@@H]3CC[C@@H]4C[C@H](O)CC[C@]4(C)[C@H]3CC[C@]12C [LCA, 3α-hydroxy-5β-cholan-24-oic acid]",–,290,183
